From patent publication US20120214684A1, “COMPOSITIONS AND METHODS FOR DETECTING AND TREATING PROSTATE CARCINOMA” (UNIVERSITY OF FLORIDA RESEARCH FOUNDATION, priority 2009, published 2012)

Key:
[1] = test system: Sox2, Oct3/4, Nanog; experiment: Western blot of stem cell markers after Docetaxel treatment; format: cell-based, human; settings: 1 nM, 2 nM, 5 nM, 10 nM docetaxel
Description: (§1) FIG. 12B is a graph depicting the cell viability of prostate cancer stem cells (CSC) and non-stem prostate cancer cells (Non-CSC) observed for up to 72 hours after treatment with Docetaxel. Cell viability was determined by quantifying the surviving prostate cancer stem cells (CSC) and non-stem prostate cancer cells (Non-CSC) in the samples exposed to 5 nM Docetaxel at Day 0, 1, 2 and 3.
(§2) Prostate cancer stem cells from metastatic prostate cancer cell lines were examined for their sensitivity to conventional cancer treatments (e.g., radiation and chemotherapy). […] Metastatic prostate stem cell lines were also treated with Docetaxel, a frontline treatment for drug-resistant cancer cells.
For the experiments described above, Western-blot analysis was performed by standard methods on isolated cancer stem cells and non-cancer stem cells. Whole cell lysates were prepared in lysis buffer with a commercially available protease inhibitor cocktail (Pierce) at 4° C., followed by centrifugation at 13,000×g for 10 min. Extracts were separated by SDS/PAGE and transferred to nitrocellulose membranes. The membranes were blocked with 5% nonfat dry milk in 20 mM Tris-HCl (pH 7.5), 500 mM sodium chloride, and 0.05% Tween 20 for 2 h and then incubated with commercially available primary antibodies in the same buffer with 1% BSA (fraction V). […]

[2] = test system: prostate cancer stem cells (CSC) and non-stem prostate cancer cells (Non-CSC); experiment: Cell viability of CSC and Non-CSC after Docetaxel; format: cell-based, human; settings: 5 nM Docetaxel, Day 0, 1, 2 and 3
Description: as §1, §2

CC(=O)O[C@@]12CO[C@@H]1C[C@H](O)[C@@]1(C)C(=O)[C@H](O)C3=C(C)[C@@H](OC(=O)[C@H](O)[C@@H](NC(=O)OC(C)(C)C)c4ccccc4)C[C@@](O)([C@@H](OC(=O)c4ccccc4)[C@H]21)C3(C)C [Docetaxel]
detection of Sox2, Oct 3/4 and Nanog expression [1]: increased detection of Sox2, Oct 3/4 and Nanog expression with increasing dose
cell viability of prostate cancer stem cells vs non-stem prostate cancer cells [2]: more cell viability compared to non-stem prostate cancer cells
